The results in this text go back to patent US20080206866A1, “Reagency and Method for Preventing Time-Dependent Expression in Biological Cells” (ANDNAGEN AG, priority 2005, published 2008).

The test system of one experiment is tumour cell line Calu-3. The experiment can be described thus: Detection of 2 inoculated Calu-3 tumour cells in treated blood samples. Format: cell-based, human. Particulars: 2 Calu-3 cells. An excerpt: (§1) In all the examples which are represented subsequently, an analysis was implemented as described in EP 02 732 726. Antibodies were thereby coupled to magnetic particles for cell selection. The antibodies represented subsequently in Table 1 were thereby used as antibodies.
(§2) The magnetic particles were thereby used in a concentration of 4×10^8 beads/ml (CELLection™ Pan Mouse IgG Kit, company Dynal). The ratios between the antibody concentration and the antibodies coupled thereto are reproduced in Table 2.
The magnetic particles prepared in this way were mixed in equal parts and added to the blood (EDTA) in 100 μl PBS per 5 ml sample. […]
The thus produced amplificates of the cDNA were separated electrophoretically by means of a bioanalyser 2100 (company Agilent). […] Peaks with a level of <4.0 are evaluated as negative. Peaks, the level of which is 4.0 to 6.7, can be evaluated neither as positive nor as negative. In this way FIGS. 1 to 6 were produced and evaluated. […]
Tracks 1, 4 and 7 thereby show a ladder with size markers, tracks 2, 5 and 8 show the amplified DNA fragments of the tumour-associated transcripts to be detected in a healthy donor and of an internal control of β-actin. […]

For experiment [1], the system named is tumour-associated transcripts GA733-2, MUC-1 and Her-2. The experiment can be described thus: Detection of time-dependent induced transcription in treated blood samples of healthy donors (immunomagnetic cell selection, RT-PCR, Bioanalyser). The format is cell-based, human. Particulars: healthy donor.
Source text: as §1, §2
The magnetic particles prepared in this way were mixed in equal parts and added to the blood (EDTA) in 100 μl PBS per 5 ml sample.
After 30 min incubation in an overhead agitator, the magnetic particles which were present possibly as cell-antibody magnetic particle complexes, were washed three times with PBS by means of a magnetic particle concentrator (MPC®-S, company Dynal) and the adhering cells were treated subsequently corresponding to the mRNA isolation protocol described subsequently. […]
The thus produced amplificates of the cDNA were separated electrophoretically by means of a bioanalyser 2100 (company Agilent). […] Peaks with a level of <4.0 are evaluated as negative. Peaks, the level of which is 4.0 to 6.7, can be evaluated neither as positive nor as negative. In this way FIGS. 1 to 6 were produced and evaluated.

Where [2] appears, read: 0.01% (w/v) DU, 0 h, 24 h and 48 h at 4° C.
Setting [3] is: 0.025%, 0.05% and 0.075% (w/v) bronopol, 24 h at 4° C.

`O=C(NCO)N(CO)C1(CO)C(=O)NC(=O)N1CO` (stereo not shown) [DU, diazolidinyl urea]: the “detection of tumour-associated transcripts of inoculated cells” value with tumour cell line Calu-3 (setting [2]) is listed as “detected unequivocally”. Besides, the “analysis result for illegitimate time-dependent induced expression, samples without inoculated cells” value in experiment [1] (setting [2]) is “negative”.

On to `O=[N+]([O-])C(Br)(CO)CO` [bronopol, 2-bromo-2-nitropropane-1,3-diol], for which the “detection of tumour-associated transcripts of inoculated cells” value in the experiment on tumour cell line Calu-3 (setting [3]) was “detected unequivocally”. In experiment [1] (setting [3]), the “analysis result for illegitimate time-dependent induced expression” value is “negative”.
